Data as given in patent publication US20230295201A1 (Gilead Sciences, Inc., priority 2020, published 2023).
Where two headings read alike, the source gives them in different places.

Assays:
Assay type in all cases: cell-based
RSV strain A2 = test: RSV HEp-2 EC50 (infectious cytopathic cell protection assay); settings: human respiratory syncytial virus, HEp-2 cells, RSV A2, 4 days, read-out: RSV HEp-2 EC50
Summary of the method: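 Percent inhibition of RSV-induced cytopathic effect came from remaining cell viability (CellTiter-Glo luminescence) after 4 days at 37° C. Compounds in 3-fold serial dilutions were exposed to an infectious mix of titered A2 virus and HEp-2 cells at 50,000/ml, with 0% and 100% inhibition control standards.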

HRV16 = HRV16 HELA EC50 (cytopathic effect in H1-HeLa cells)
Summary of the method: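 Read-out is luminescent cell viability (CellTiter-Glo) after 96 h of infection at 33 °C, scaled between uninfected and infected-untreated wells. Before infection with titrated virus, compounds went onto H1-HeLa cells as triplicate 3-fold dilution series.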

RSV A2 = test: RSV NHBE EC50 (RSV A2 antiviral assay in normal human bronchial epithelial cells); settings: human respiratory syncytial virus, 96 h, NHBE cells, RSV A2, 4 days, read-out: RSV NHBE EC50
DENV2 replicon = test: DENV-2 Huh-7 Rep EC50 (replicon luminescence); settings: Dengue virus, DENV2, Huh-7, 48 h, read-out: DENV-2 Huh-7 Rep EC50
Summary of the method: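 EC50 derived from luminescence dose-response, normalised to DMSO-only 0% inhibition wells, after 1.5 h with EnduRen substrate. Compounds were first exposed for 48 h at 37° C to DENV2 replicon Huh-7 cells (5,000/well).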

[1] = 96 h, H1-HeLa cells, 33° C., read-out: HRV16 HELA EC50

| Structure (SMILES) | EC50 (RSV strain A2; HEp-2, 96 h) [µM] | EC50 (HRV16; [1]) [µM] | EC50 (RSV A2; NHBE) [µM] | EC50 (DENV2 replicon; Huh-7 replicon cells, 48 hours) [µM] | EC50 (RSV strain A2; 96 h) [µM] | EC50 (HRV16; H1-HeLa cells, 96 h, 33° C.; read-out: HRV16 HELA EC50) [µM] | EC50 (RSV A2) [µM] | EC50 (DENV2 replicon) [µM] | EC50 (RSV A2; NHBE, in Homo sapiens) [µM] |
| --- | --- | --- | --- | --- | --- | --- | --- | --- | --- |
| N#C[C@]1(COP(=O)(N[C@H](C(=O)OCC2CC2)C2CCCCC2)Oc2ccccc2)O[C@@H](c2ccc3c(N)ncnn23)[C@H](O)[C@@H]1O (stereo partly drawn) [Example 121, (2S)-cyclopropylmethyl 2-(((((2R,3S,4R,5S)-5-(4-aminopyrrolo[2,1-f][1,2,4]triazin-7-yl)-2-cyano-3,4-dihydroxytetrahydrofuran-2-yl)methoxy)(phenoxy)phosphoryl)amino)-2-cyclohexylacetate] | > 100 | > 100 | > 5 | 56.7 |  |  |  |  |  |
| C[C@H](NP(=O)(OC[C@@]1(C#N)O[C@@H](c2ccc3c(N)ncnn23)[C@H](O)[C@@H]1O)Oc1ccccc1)C(=O)O[C@H]1CCNC1 (stereo partly drawn) [Example 122, (2S)—(S)-pyrrolidin-3-yl 2-(((((2R,3S,4R,5S)-5-(4-aminopyrrolo[2,1-f][1,2,4]triazin-7-yl)-2-cyano-3,4-dihydroxytetrahydrofuran-2-yl)methoxy)(phenoxy)phosphoryl)amino)propanoate] | 4.04 | 29.3 | > 5 | > 50 |  |  |  |  |  |
| N#C[C@]1(COP(=O)(N[C@H](C(=O)OCC2CC2)C2CCCC2)Oc2ccccc2)O[C@@H](c2ccc3c(N)ncnn23)[C@H](O)[C@@H]1O (stereo partly drawn) [Example 123, (2S)-cyclopropylmethyl 2-(((((2R,3S,4R,5S)-5-(4-aminopyrrolo[2,1-f][1,2,4]triazin-7-yl)-2-cyano-3,4-dihydroxytetrahydrofuran-2-yl)methoxy)(phenoxy)phosphoryl)amino)-2-cyclopentylacetate] | > 100 | > 100 | > 5 | 48.5 |  |  |  |  |  |
| Cc1oc(=O)oc1COC(=O)C1(NP(=O)(OC[C@@]2(C#N)O[C@@H](c3ccc4c(N)ncnn34)[C@H](O)[C@@H]2O)Oc2ccccc2)CCC1 (stereo partly drawn) [Example 125, (5-methyl-2-oxo-1,3-dioxol-4-yl)methyl 1-(((((2R,3S,4R,5S)-5-(4-aminopyrrolo[2,1-f][1,2,4]triazin-7-yl)-2-cyano-3,4-dihydroxytetrahydrofuran-2-yl)methoxy)(phenoxy)phosphoryl)amino)cyclobutane-1-carboxylate] | 3.3 | 7.65 | 3.65 | > 100 |  |  |  |  |  |
| CC(C)(CO)C(=O)OCCNP(=O)(OC[C@@]1(C#N)O[C@@H](c2ccc3c(N)ncnn23)[C@H](O)[C@@H]1O)Oc1ccccc1 (stereo partly drawn) [Example 126, 2-(((((2R,3S,4R,5S)-5-(4-aminopyrrolo[2,1-f][1,2,4]triazin-7-yl)-2-cyano-3,4-dihydroxytetrahydrofuran-2-yl)methoxy)(phenoxy)phosphoryl)amino)ethyl 3-hydroxy-2,2-dimethylpropanoate] | 6.56 | 27.9 | 1.79 | > 50 |  |  |  |  |  |
| CC(C)[C@H](N)C(=O)OCCNP(=O)(OC[C@@]1(C#N)O[C@@H](c2ccc3c(N)ncnn23)[C@H](O)[C@@H]1O)Oc1ccccc1 (stereo partly drawn) [Example 131, (2S)-2-(((((2R,3S,4R,5S)-5-(4-aminopyrrolo[2,1-f][1,2,4]triazin-7-yl)-2-cyano-3,4-dihydroxytetrahydrofuran-2-yl)methoxy)(phenoxy)phosphoryl)amino)ethyl 2-amino-3-methylbutanoate] | 0.315 | 1.81 | 0.636 | > 50 |  |  |  |  |  |
| CCC(CC)COC(=O)[C@H](CC1CC1)NP(=O)(OC[C@@]1(C#N)O[C@@H](c2ccc3c(N)ncnn23)[C@H](O)[C@@H]1O)Oc1ccccc1 (stereo partly drawn) [Example 132, (2S)-2-ethylbutyl 2-(((((2R,3S,4R,5S)-5-(4-aminopyrrolo[2,1-f][1,2,4]triazin-7-yl)-2-cyano-3,4-dihydroxytetrahydrofuran-2-yl)methoxy)(phenoxy)phosphoryl)amino)-3-cyclopropylpropanoate] | 1.99 | 22.4 | 0.523 | 44.6 |  |  |  |  |  |
| C[C@H](N)C(=O)OCCNP(=O)(OC[C@@]1(C#N)O[C@@H](c2ccc3c(N)ncnn23)[C@H](O)[C@@H]1O)Oc1ccccc1 (stereo partly drawn) [Example 133, 2-(((((2R,3S,4R,5S)-5-(4-aminopyrrolo[2,1-f][1,2,4]triazin-7-yl)-2-cyano-3,4-dihydroxytetrahydrofuran-2-yl)methoxy)(phenoxy)phosphoryl)amino)ethyl L-alaninate] | 4.72 | 16.5 | > 5 | > 50 |  |  |  |  |  |
| C[C@H](NP(=O)(OC[C@@]1(C#N)O[C@@H](c2ccc3c(N)ncnn23)[C@H](O)[C@@H]1O)Oc1ccccc1)C(=O)OC1CCCCCC1 (stereo partly drawn) [Example 134, (2S)-cycloheptyl 2-(((((2R,3S,4R,5S)-5-(4-aminopyrrolo[2,1-f][1,2,4]triazin-7-yl)-2-cyano-3,4-dihydroxytetrahydrofuran-2-yl)methoxy)(phenoxy)phosphoryl)amino)propanoate] | 0.334 | 0.247 | 0.052 | 24.7 |  |  |  |  |  |
| CC(C)[C@H](NC(=O)OC(C)(C)C)C(=O)OCCNP(=O)(OC[C@@]1(C#N)O[C@@H](c2ccc3c(N)ncnn23)[C@H](O)[C@@H]1O)Oc1ccccc1 (stereo partly drawn) [Example 139, (2S)-2-(((((2R,3S,4R,5S)-5-(4-aminopyrrolo[2,1-f][1,2,4]triazin-7-yl)-2-cyano-3,4-dihydroxytetrahydrofuran-2-yl)methoxy)(phenoxy)phosphoryl)amino)ethyl 2-((tert-butoxycarbonyl)amino)-3-methylbutanoate] | 6.43 | 28.3 | 0.103 | > 50 |  |  |  |  |  |
| C[C@@H](NP(=O)(OC[C@@]1(C#N)O[C@@H](c2ccc3c(N)ncnn23)[C@H](O)[C@@H]1O)Oc1ccccc1)C(=O)O[C@@H]1CCN(C(=O)OC(C)(C)C)C1 (stereo partly drawn) [Example 140, (3R)-tert-butyl 3-(((2R)-2-(((((2R,3S,4R,5S)-5-(4-aminopyrrolo[2,1-f][1,2,4]triazin-7-yl)-2-cyano-3,4-dihydroxytetrahydrofuran-2-yl)methoxy)(phenoxy)phosphoryl)amino)propanoyl)oxy)pyrrolidine-1-carboxylate] | 8.89 | 23.3 | > 5 | > 50 |  |  |  |  |  |
| CC1(C(=O)OCCNP(=O)(OC[C@@]2(C#N)O[C@@H](c3ccc4c(N)ncnn34)[C@H](O)[C@@H]2O)Oc2ccccc2)CC1 (stereo partly drawn) [Example 141, 2-(((((2R,3S,4R,5S)-5-(4-aminopyrrolo[2,1-f][1,2,4]triazin-7-yl)-2-cyano-3,4-dihydroxytetrahydrofuran-2-yl)methoxy)(phenoxy)phosphoryl)amino)ethyl 1-methylcyclopropane-1-carboxylate] | 2.01 | 14.9 | 0.067 | > 50 |  |  |  |  |  |
| CC(=O)N1CC[C@@H](OC(=O)[C@H](C)NP(=O)(OC[C@@]2(C#N)O[C@@H](c3ccc4c(N)ncnn34)[C@H](O)[C@@H]2O)Oc2ccccc2)C1 (stereo partly drawn) [Example 146, (2S)—(R)-1-acetylpyrrolidin-3-yl 2-(((((2R,3S,4R,5S)-5-(4-aminopyrrolo[2,1-f][1,2,4]triazin-7-yl)-2-cyano-3,4-dihydroxytetrahydrofuran-2-yl)methoxy)(phenoxy)phosphoryl)amino)propanoate] | 9.72 | > 50 | > 5 | > 50 |  |  |  |  |  |
| CCCCCCCCCCCCCCCCCCOCCOP(=O)(O)OC[C@@]1(C#N)O[C@@H](c2ccc3c(N)ncnn23)[C@H](O)[C@@H]1O [Example 148, ((2R,3S,4R,5S)-5-(4-aminopyrrolo[2,1-f][1,2,4]triazin-7-yl)-2-cyano-3,4-dihydroxytetrahydrofuran-2-yl)methyl (2-(octadecyloxy)ethyl) hydrogen phosphate] |  |  |  |  | 2.67 | 36.9 | 0.32 | > 50 |  |
| C[C@H](NP(=O)(OC[C@@]1(C#N)O[C@@H](c2ccc3c(N)ncnn23)[C@H](O)[C@@H]1O)Oc1ccccc1)C(=O)OC1CCN(C)CC1 (stereo partly shown) [Example 150] | 4.16 | 49.9 |  | > 100 |  |  |  |  | > 5 |
| C[C@H](NP(=O)(OC[C@@]1(C#N)O[C@@H](c2ccc3c(N)ncnn23)[C@H](O)[C@@H]1O)Oc1ccccc1)C(=O)OC1CCOC(C)(C)C1 (stereo partly drawn) [Example 156, 2,2-dimethyltetrahydro-2H-pyran-4-yl ((((2R,3S,4R,5S)-5-(4-aminopyrrolo[2,1-f][1,2,4]triazin-7-yl)-2-cyano-3,4-dihydroxytetrahydrofuran-2-yl)methoxy)(phenoxy)phosphoryl)alaninate] | 8.94 | 25.9 | 1.37 | > 100 |  |  |  |  |  |
